Assay results published in US20080241263A1, “Oral and/or Topical Compositions Comprising Prebiotics and Sterols” (priority 2004, published 2008).

Key:
Bifidobacterium = test: Stimulation of growth: enumeration of bifidobacterium in vitro in human faecal homogenate / WC broth; assay type: cell-based, Bifidobacterium spp; details: incubated up to 24 hours
Experimental: (§1) The stimulation of growth of micro-organisms has been studied by enumerating bifidobacterium and lactobacilli in vitro in the presence of various test substances. More specifically, aliquots (1 mL) of human faecal homogenates (10 g per 100 mL diluent) were added to diluted WC broth (diluted 50:50 with 0.05M phosphate buffer) to which were added the test mixtures and a lactobacillus or bifidobacterium strain. For each of the combinations, parallel tubes were prepared with one set being inoculated with Bifidobacterium spp or Lactobacillus spp. All mixtures were then incubated for up to 24 hours and bacterial numbers enumerated.

Lactobacterium = test: Stimulation of growth: enumeration of lactobacilli in vitro in human faecal homogenate / WC broth; assay type: cell-based, Lactobacillus spp; details: incubated up to 24 hours
Experimental: as §1

Compound | Bacterial numbers (CFU/ml) (Bifidobacterium; 1% test substance) | Bacterial numbers (CFU/ml) (Lactobacterium; 1% test substance) | Bacterial numbers (CFU/ml) (Bifidobacterium; 1% test substance/mixture) | Bacterial numbers (CFU/ml) (Lactobacterium; 1% test substance/mixture)
CCCCCCCCCCCCCCCC(=O)O[C@H]1CC[C@@]2(C)C(=CC[C@H]3[C@@H]4CC[C@H]([C@H](C)CC[C@@H](CC)C(C)C)[C@@]4(C)CC[C@@H]32)C1 [C7, β-Sitosterolpalmitate] | 2.7 × 10^6 CFU/ml | 4.4 × 10^5 CFU/ml | – | –
Betaglucan [C4] | – | – | 1.2 × 10^7 CFU/ml | 1.1 × 10^6 CFU/ml
CC[C@H](CC[C@@H](C)[C@H]1CC[C@H]2[C@@H]3CC[C@H]4C[C@@H](O)CC[C@]4(C)[C@H]3CC[C@]12C)C(C)C [C6, β-Sitostanol] | 2.4 × 10^6 CFU/ml | 4.4 × 10^5 CFU/ml | – | –
CCCCCCCCCCCCCCCCCC(=O)O[C@H]1CC[C@@]2(C)[C@@H](CC[C@@H]3[C@@H]2CC[C@]2(C)[C@@H]([C@H](C)CC[C@@H](CC)C(C)C)CC[C@@H]32)C1 [C8, β-Sitostanolstearate] | 3.2 × 10^6 CFU/ml | 4.5 × 10^5 CFU/ml | – | –
CC[C@H](CC[C@@H](C)[C@H]1CC[C@H]2[C@@H]3CC=C4C[C@@H](O)CC[C@]4(C)[C@H]3CC[C@]12C)C(C)C [C5, β-Sitosterol] | 3.3 × 10^6 CFU/ml | 4.4 × 10^5 CFU/ml | – | –
Lactolin [C3] | – | – | 1.6 × 10^7 CFU/ml | 1.5 × 10^6 CFU/ml
OC[C@H]1O[C@@H](O[C@H]2[C@H](O)[C@@H](O)[C@@H](O[C@]3(CO)O[C@H](CO)[C@@H](O)[C@@H]3O)O[C@@H]2CO)[C@H](O)[C@@H](O)[C@H]1O [C2, Lactosucrose] | – | – | 1.1 × 10^7 CFU/ml | 1.1 × 10^6 CFU/ml
